Measurements taken from patent US20090068290A1, “BIFEPRUNOX DOSES FOR TREATING SCHIZOPHRENIA” (priority 2006, published 2009).

Legend:
Assay type in all cases: in vivo, human
[1] = test system: adult subjects with schizophrenia; test: PANSS negative subscale score, Clinical Study One; details: ITT; for PANSS Negative Subscale Score, Trt Effect (bifeprunox—placebo): ANCOVA
Protocol: There were five treatment groups in this study. […] Study medication was administered once daily. After Baseline measurements were performed, the titration phase was begun. Bifeprunox treated subjects were titrated up to 5 mg, 10 mg or 20 mg according to a standardized titration schedule (Day 1: 0.125 mg, Day 2: 0.25 mg, Day 3: 0.5 mg, Day 4: 1.0 mg, Day 5: 2.0 mg, Day 6: 5.0 mg, Day 7: 10.0 mg, Day 8: 20 mg). When the assigned dose was reached, subjects were maintained at that dose for the remainder of the six-week treatment period.
The change in the Positive and Negative Symptom Scale (PANSS) total score, from baseline to endpoint, was the primary outcome measure. Secondary efficacy measures included: PANSS positive, PANSS negative, PANSS general psychopathology (GPP) score, PANSS-derived Brief Psychiatric Rating Scale (BPRS) score, Clinical Global Impressions-Severity of Illness (CGI-S), CGI-Improvement (CGI-I) scores, and responder rates. Safety and tolerability evaluations included extrapyramidal symptoms (EPS), weight gain, lipid profile, and serum prolactin.

[2] = test system: adult subjects with schizophrenia; test: PANSS positive symptom subscale score, Clinical Study Two; details: LOCF, ITT; for PANSS Positive Symptom Subscale Score, Trt Effect (bifeprunox—placebo): ANCOVA
Protocol: Rating scale assessments were performed weekly, except for week 5, to measure the change from baseline to endpoint of the PANSS total score. Other assessments included: PANSS positive symptom subscale score, PANSS negative symptom subscale score, PANSS general pschopathology subscale score, BPRS total score, BPRS psychosis score, the CGI-S score, the CGI-I score, responder rates based on the PANSS total score, and the Calgary Depression Scale for Schizophrenia (CDSS). […]
Subjects who completed this study had the option to continue in the long-term. […] Risperidone-treated subjects were titrated from 2 mg to 6 mg daily over a three-day period and were subsequently maintained at 6 mg/day for the remainder of the treatment period. […] Blood samples were also obtained at Screening/Baseline, Week 3, and Week 6 for clinical laboratory assessments.

[3] = test system: adult subjects with schizophrenia; test: PANSS responder rate, Clinical Study Two; details: bifeprunox 30 mg
Protocol: Notable differences were also observed between the 30 mg bifeprunox group and placebo for the change from baseline to endpoint in PANSS general psychopathology subscale score, BPRS total score, BPRS psychosis cluster score, PANSS responder rate, and CGI-I responder rate. […] A CGI-I responder refers to a subject who was categorized as “very much improved” or “much improved” in the CGI Global Improvement scale at endpoint. […]
Subjects who completed this study had the option to continue in the long-term. […] Risperidone-treated subjects were titrated from 2 mg to 6 mg daily over a three-day period and were subsequently maintained at 6 mg/day for the remainder of the treatment period. […] Blood samples were also obtained at Screening/Baseline, Week 3, and Week 6 for clinical laboratory assessments. […]

[4] = Bifeprunox 10 mg, Endpoint LOCF
[5] = Bifeprunox 20 mg, Endpoint LOCF
[6] = Bifeprunox 30 mg, Week 6/Endpoint
[7] = Bifeprunox 40 mg, Week 6/Endpoint

O=c1[nH]c2cccc(N3CCN(Cc4cccc(-c5ccccc5)c4)CC3)c2o1 [Bifeprunox, 7-[4-([1,1′-biphenyl]-3-ylmethyl)-1-piperazinyl]-2(3H)-benzoxazolone]
Change from Baseline in PANSS Negative Subscale Score, Mean (S.D.) ([1]; Bifeprunox 5 mg, Endpoint LOCF): −2.2 (4.9)
Change from Baseline in PANSS Negative Subscale Score, Median ([1]; Bifeprunox 5 mg, Endpoint LOCF): −2
PANSS Negative Subscale Score, Trt Effect (bifeprunox—placebo) ([1]; Bifeprunox 5 mg, Endpoint LOCF): −1.0
Change from Baseline in PANSS Negative Subscale Score, Mean (S.D.) ([1]; Bifeprunox 5 mg, Week 1, LOCF): −1.1 (3.9)
Change from Baseline in PANSS Negative Subscale Score, Median ([1]; Bifeprunox 5 mg, Week 1, LOCF): −1
Change from Baseline in PANSS Negative Subscale Score, Mean (S.D.) ([1]; Bifeprunox 5 mg, Week 2, LOCF): −1.8 (4.4)
Change from Baseline in PANSS Negative Subscale Score, Median ([1]; Bifeprunox 5 mg, Week 2, LOCF): −2
Change from Baseline in PANSS Negative Subscale Score, Mean (S.D.) ([1]; Bifeprunox 5 mg, Week 3, LOCF): −1.8 (4.7)
Change from Baseline in PANSS Negative Subscale Score, Median ([1]; Bifeprunox 5 mg, Week 3, LOCF): −2
Change from Baseline in PANSS Negative Subscale Score, Mean (S.D.) ([1]; Bifeprunox 5 mg, Week 4, LOCF): −2.0 (4.9)
Change from Baseline in PANSS Negative Subscale Score, Median ([1]; Bifeprunox 5 mg, Week 4, LOCF): −1
Change from Baseline in PANSS Negative Subscale Score, Mean (S.D.) [1, 4]: −1.7 (4.7)
Change from Baseline in PANSS Negative Subscale Score, Median [1, 4]: −1
Change from Baseline in PANSS Negative Subscale Score, Mean (S.D.) ([1]; Bifeprunox 10 mg, Week 1, LOCF): −1.4 (3.4)
Change from Baseline in PANSS Negative Subscale Score, Median ([1]; Bifeprunox 10 mg, Week 1, LOCF): −1
Change from Baseline in PANSS Negative Subscale Score, Mean (S.D.) ([1]; Bifeprunox 10 mg, Week 2, LOCF): −1.5 (4.2)
Change from Baseline in PANSS Negative Subscale Score, Median ([1]; Bifeprunox 10 mg, Week 2, LOCF): −1
Change from Baseline in PANSS Negative Subscale Score, Mean (S.D.) ([1]; Bifeprunox 10 mg, Week 3, LOCF): −1.7 (5.0)
Change from Baseline in PANSS Negative Subscale Score, Median ([1]; Bifeprunox 10 mg, Week 3, LOCF): −1
Change from Baseline in PANSS Negative Subscale Score, Mean (S.D.) ([1]; Bifeprunox 10 mg, Week 4, LOCF): −1.5 (4.6)
Change from Baseline in PANSS Negative Subscale Score, Median ([1]; Bifeprunox 10 mg, Week 4, LOCF): −1
Change from Baseline in PANSS Negative Subscale Score, Mean (S.D.) [1, 5]: −2.6 (5.3)
Change from Baseline in PANSS Negative Subscale Score, Median [1, 5]: −2
PANSS Negative Subscale Score, Trt Effect (bifeprunox—placebo) [1, 5]: −1.4
Change from Baseline in PANSS Negative Subscale Score, Mean (S.D.) ([1]; Bifeprunox 20 mg, Week 1, LOCF): −1.6 (3.4)
Change from Baseline in PANSS Negative Subscale Score, Median ([1]; Bifeprunox 20 mg, Week 1, LOCF): −1
Change from Baseline in PANSS Negative Subscale Score, Mean (S.D.) ([1]; Bifeprunox 20 mg, Week 2, LOCF): −2.0 (4.2)
Change from Baseline in PANSS Negative Subscale Score, Median ([1]; Bifeprunox 20 mg, Week 2, LOCF): −1
Change from Baseline in PANSS Negative Subscale Score, Mean (S.D.) ([1]; Bifeprunox 20 mg, Week 3, LOCF): −2.7 (4.4)
Change from Baseline in PANSS Negative Subscale Score, Mean (S.D.) ([1]; Bifeprunox 20 mg, Week 4, LOCF): −2.5 (4.6)
Change from Baseline in PANSS Negative Subscale Score, Median ([1]; Bifeprunox 20 mg, Week 4, LOCF): −2
Change from Baseline in PANSS Positive Symptom Subscale Score, Mean (SD) ([2]; Bifeprunox 30 mg, Week 1): −2.3 (3.6)
Change from Baseline in PANSS Positive Symptom Subscale Score, Median ([2]; Bifeprunox 30 mg, Week 1): −2
Change from Baseline in PANSS Positive Symptom Subscale Score, Mean (SD) ([2]; Bifeprunox 30 mg, Week 2): −4.1 (5.3)
Change from Baseline in PANSS Positive Symptom Subscale Score, Median ([2]; Bifeprunox 30 mg, Week 2): −3
Change from Baseline in PANSS Positive Symptom Subscale Score, Mean (SD) ([2]; Bifeprunox 30 mg, Week 3): −4.5 (5.6)
Change from Baseline in PANSS Positive Symptom Subscale Score, Median ([2]; Bifeprunox 30 mg, Week 3): −4
Change from Baseline in PANSS Positive Symptom Subscale Score, Mean (SD) ([2]; Bifeprunox 30 mg, Week 4): −4.4 (5.9)
Change from Baseline in PANSS Positive Symptom Subscale Score, Median ([2]; Bifeprunox 30 mg, Week 4): −4
Change from Baseline in PANSS Positive Symptom Subscale Score, Mean (SD) [2, 6]: −4.5 (6.6)
Change from Baseline in PANSS Positive Symptom Subscale Score, Median [2, 6]: −4
PANSS Positive Symptom Subscale Score, Trt Effect (bifeprunox—placebo) [2, 6]: −1.9
Change from Baseline in PANSS Positive Symptom Subscale Score, Mean (SD) ([2]; Bifeprunox 40 mg, Week 1): −2.8 (3.9)
Change from Baseline in PANSS Positive Symptom Subscale Score, Median ([2]; Bifeprunox 40 mg, Week 1): −2
Change from Baseline in PANSS Positive Symptom Subscale Score, Mean (SD) ([2]; Bifeprunox 40 mg, Week 2): −3.6 (5.7)
Change from Baseline in PANSS Positive Symptom Subscale Score, Median ([2]; Bifeprunox 40 mg, Week 2): −3
Change from Baseline in PANSS Positive Symptom Subscale Score, Mean (SD) ([2]; Bifeprunox 40 mg, Week 3): −4.1 (6.3)
Change from Baseline in PANSS Positive Symptom Subscale Score, Median ([2]; Bifeprunox 40 mg, Week 3): −4
Change from Baseline in PANSS Positive Symptom Subscale Score, Mean (SD) ([2]; Bifeprunox 40 mg, Week 4): −3.7 (6.6)
Change from Baseline in PANSS Positive Symptom Subscale Score, Median ([2]; Bifeprunox 40 mg, Week 4): −3
Change from Baseline in PANSS Positive Symptom Subscale Score, Mean (SD) [2, 7]: −4.2 (6.9)
Change from Baseline in PANSS Positive Symptom Subscale Score, Median [2, 7]: −4
PANSS Positive Symptom Subscale Score, Trt Effect (bifeprunox—placebo) [2, 7]: −1.7
PANSS 20% responder rate ([3]; Endpoint LOCF): 36%
PANSS 30% responder rate ([3]; Endpoint LOCF): 24%
PANSS Responder at Endpoint, 30% Definition Responder, No ([3]; LOCF, ITT): 106 (76%) n (%)
PANSS Responder at Endpoint, 30% Definition Responder, Yes ([3]; LOCF, ITT): 34 (24%) n (%)
PANSS Responder at Week 6/Endpoint, 20% Definition, No ([3]; LOCF, ITT): 89 (64%) n (%)
